Measurements: ChEMBL document CHEMBL5291721, “A preclinical secondary pharmacology resource illuminates target-adverse drug reaction associations of marketed drugs” (Nat Commun, 2023)

Experiments:
[1] = biological target: T1, Glucocorticoid receptor (Homo sapiens, UniProt P04150)
T1 sequence (P04150 whole entry): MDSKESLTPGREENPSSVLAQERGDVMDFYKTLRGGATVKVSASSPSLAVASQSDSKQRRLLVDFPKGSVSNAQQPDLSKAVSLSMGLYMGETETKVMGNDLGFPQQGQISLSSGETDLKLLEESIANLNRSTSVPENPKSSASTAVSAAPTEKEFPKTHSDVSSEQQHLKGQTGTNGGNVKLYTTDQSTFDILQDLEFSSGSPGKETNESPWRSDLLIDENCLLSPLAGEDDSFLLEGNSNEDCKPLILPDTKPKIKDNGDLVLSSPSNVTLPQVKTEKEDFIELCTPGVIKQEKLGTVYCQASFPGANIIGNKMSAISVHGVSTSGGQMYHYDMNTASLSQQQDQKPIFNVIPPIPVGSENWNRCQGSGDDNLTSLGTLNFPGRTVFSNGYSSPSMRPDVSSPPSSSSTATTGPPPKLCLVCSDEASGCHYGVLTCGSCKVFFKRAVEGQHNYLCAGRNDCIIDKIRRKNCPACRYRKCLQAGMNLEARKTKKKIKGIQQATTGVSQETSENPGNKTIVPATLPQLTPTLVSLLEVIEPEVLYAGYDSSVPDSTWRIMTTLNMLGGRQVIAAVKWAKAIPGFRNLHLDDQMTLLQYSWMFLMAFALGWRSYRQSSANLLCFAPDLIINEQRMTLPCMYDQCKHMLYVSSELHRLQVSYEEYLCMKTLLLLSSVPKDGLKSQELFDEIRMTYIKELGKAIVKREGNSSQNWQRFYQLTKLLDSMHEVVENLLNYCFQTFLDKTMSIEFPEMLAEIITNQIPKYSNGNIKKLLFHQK

[2] = biological target: Mu-type opioid receptor (Homo sapiens, UniProt P35372)
[3] = biological target: Sodium-dependent serotonin transporter (Homo sapiens, UniProt P31645)
[4] = biological target: Vasopressin V1a receptor (Homo sapiens, UniProt P37288)
[5] = biological target: T2, 5-hydroxytryptamine receptor 1A (Homo sapiens, UniProt P08908); assay type: functional, cell-based
T2 sequence (P08908 whole entry): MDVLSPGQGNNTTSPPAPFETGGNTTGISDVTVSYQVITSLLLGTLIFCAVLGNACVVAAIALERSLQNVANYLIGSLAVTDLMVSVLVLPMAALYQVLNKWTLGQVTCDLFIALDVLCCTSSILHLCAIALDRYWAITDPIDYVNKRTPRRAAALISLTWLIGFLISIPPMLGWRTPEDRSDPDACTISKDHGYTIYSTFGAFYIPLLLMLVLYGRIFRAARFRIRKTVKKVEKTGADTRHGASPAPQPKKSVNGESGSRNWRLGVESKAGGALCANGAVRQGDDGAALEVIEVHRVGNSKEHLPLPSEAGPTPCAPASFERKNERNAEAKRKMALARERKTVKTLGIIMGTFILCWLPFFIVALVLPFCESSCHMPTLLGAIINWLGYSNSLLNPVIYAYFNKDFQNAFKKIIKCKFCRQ

[6] = biological target: T3, Alpha-1A adrenergic receptor (Homo sapiens, UniProt P35348); assay type: functional, cell-based
T3 sequence (P35348 whole entry): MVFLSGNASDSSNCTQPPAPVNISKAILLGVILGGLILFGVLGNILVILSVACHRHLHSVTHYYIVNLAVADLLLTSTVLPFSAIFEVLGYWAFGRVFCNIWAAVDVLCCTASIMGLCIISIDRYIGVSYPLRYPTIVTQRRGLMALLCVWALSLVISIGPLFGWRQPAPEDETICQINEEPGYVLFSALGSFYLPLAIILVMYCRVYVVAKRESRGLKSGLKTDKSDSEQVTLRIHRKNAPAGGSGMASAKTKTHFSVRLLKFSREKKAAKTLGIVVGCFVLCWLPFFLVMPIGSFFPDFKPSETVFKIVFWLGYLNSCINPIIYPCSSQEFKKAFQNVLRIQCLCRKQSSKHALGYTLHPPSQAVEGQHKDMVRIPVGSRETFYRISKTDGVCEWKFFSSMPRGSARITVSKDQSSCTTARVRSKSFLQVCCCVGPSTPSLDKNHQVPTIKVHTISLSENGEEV

[7] = biological target: T4, Cannabinoid receptor 1 (Homo sapiens, UniProt P21554); assay type: functional, cell-based
[8] = biological target: T5, Progesterone receptor (Homo sapiens, UniProt P06401); assay type: functional
T5 sequence (P06401 whole entry): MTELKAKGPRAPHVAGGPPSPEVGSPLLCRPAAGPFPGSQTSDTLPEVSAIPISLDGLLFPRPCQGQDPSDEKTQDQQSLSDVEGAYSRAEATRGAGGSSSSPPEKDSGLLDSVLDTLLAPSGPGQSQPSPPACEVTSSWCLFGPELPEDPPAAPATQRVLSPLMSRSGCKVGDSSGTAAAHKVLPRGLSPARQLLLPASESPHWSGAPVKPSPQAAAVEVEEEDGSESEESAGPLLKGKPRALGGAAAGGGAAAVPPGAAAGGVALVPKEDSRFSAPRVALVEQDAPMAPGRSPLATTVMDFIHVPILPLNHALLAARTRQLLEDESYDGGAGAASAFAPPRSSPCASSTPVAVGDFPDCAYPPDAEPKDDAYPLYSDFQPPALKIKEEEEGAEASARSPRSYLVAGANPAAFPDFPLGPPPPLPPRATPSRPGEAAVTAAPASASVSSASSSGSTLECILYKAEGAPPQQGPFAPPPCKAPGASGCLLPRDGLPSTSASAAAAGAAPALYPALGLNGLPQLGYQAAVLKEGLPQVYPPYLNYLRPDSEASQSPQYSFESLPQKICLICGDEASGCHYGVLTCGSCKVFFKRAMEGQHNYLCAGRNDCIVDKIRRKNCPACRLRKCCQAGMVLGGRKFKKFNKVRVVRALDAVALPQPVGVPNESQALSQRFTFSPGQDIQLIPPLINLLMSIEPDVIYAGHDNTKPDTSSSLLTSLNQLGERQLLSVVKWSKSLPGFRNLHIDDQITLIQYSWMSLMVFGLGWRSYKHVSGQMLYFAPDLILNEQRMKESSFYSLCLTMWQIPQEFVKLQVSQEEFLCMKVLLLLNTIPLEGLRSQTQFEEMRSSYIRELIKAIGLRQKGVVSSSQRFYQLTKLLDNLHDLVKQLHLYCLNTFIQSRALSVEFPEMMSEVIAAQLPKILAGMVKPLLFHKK

[9] = biological target: T4, Cannabinoid receptor 1; assay type: functional, cell-based; remark: listed apart in the source
[10] = biological target: T6, 5-hydroxytryptamine receptor 2A (Homo sapiens, UniProt P28223); assay type: functional, cell-based
[11] = biological target: T6, 5-hydroxytryptamine receptor 2A; assay type: functional, cell-based; remark: listed apart in the source
Further: assay procedure not described here.

Chain of Sodium-dependent serotonin transporter (P31645 whole entry): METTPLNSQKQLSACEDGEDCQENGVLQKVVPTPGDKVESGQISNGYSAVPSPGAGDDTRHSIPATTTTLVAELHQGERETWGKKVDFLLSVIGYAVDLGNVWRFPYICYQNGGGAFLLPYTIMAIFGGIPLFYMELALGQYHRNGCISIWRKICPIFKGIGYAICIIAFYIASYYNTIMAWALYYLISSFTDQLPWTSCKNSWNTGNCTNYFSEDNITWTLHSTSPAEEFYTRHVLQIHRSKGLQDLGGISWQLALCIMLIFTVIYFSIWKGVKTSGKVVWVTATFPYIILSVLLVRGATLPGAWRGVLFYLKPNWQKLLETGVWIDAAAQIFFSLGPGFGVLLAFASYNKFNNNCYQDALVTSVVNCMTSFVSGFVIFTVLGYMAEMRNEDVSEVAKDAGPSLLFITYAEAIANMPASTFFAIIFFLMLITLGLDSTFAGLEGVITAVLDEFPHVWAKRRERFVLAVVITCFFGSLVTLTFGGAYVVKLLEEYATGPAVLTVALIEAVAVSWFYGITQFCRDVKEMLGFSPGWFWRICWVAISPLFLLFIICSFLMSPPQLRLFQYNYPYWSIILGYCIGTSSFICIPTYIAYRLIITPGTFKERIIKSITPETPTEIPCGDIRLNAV
Chain of Mu-type opioid receptor (P35372 whole entry): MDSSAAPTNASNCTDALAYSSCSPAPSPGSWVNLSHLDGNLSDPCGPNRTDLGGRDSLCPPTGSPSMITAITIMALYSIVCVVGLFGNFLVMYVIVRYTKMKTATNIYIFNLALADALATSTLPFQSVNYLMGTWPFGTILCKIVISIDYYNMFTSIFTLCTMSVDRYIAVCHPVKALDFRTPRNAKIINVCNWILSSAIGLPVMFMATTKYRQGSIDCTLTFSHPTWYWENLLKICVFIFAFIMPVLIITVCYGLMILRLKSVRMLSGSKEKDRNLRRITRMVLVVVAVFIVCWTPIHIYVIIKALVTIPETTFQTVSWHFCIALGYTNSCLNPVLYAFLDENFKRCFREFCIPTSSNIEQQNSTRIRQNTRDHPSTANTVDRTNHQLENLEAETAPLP
Chain of Vasopressin V1a receptor (P37288 whole entry): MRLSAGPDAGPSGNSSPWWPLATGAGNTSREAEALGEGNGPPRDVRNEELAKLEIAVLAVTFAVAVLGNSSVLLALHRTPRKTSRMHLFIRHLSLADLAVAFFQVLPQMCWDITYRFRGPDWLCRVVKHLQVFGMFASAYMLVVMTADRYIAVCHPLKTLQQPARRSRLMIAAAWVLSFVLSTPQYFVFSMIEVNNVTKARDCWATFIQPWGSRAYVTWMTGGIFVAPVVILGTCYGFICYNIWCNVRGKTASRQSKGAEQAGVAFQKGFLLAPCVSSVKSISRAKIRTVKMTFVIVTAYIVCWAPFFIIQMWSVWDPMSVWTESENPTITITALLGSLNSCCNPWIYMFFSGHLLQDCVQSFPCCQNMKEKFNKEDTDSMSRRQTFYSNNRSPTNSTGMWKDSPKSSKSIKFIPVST
T4 sequence (P21554 whole entry): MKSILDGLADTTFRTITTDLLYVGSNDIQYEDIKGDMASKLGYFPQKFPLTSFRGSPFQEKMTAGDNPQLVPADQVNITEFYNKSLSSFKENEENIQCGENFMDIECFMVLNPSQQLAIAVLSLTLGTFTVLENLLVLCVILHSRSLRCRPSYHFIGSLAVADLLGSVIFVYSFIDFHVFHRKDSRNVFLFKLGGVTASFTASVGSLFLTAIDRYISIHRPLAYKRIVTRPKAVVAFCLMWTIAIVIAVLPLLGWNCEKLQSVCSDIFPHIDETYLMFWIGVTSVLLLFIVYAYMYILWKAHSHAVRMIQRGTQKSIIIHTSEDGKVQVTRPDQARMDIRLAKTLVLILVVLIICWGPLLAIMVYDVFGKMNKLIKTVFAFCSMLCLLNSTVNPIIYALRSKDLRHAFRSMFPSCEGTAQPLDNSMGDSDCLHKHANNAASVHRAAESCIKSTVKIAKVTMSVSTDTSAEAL
T6 sequence (P28223 whole entry): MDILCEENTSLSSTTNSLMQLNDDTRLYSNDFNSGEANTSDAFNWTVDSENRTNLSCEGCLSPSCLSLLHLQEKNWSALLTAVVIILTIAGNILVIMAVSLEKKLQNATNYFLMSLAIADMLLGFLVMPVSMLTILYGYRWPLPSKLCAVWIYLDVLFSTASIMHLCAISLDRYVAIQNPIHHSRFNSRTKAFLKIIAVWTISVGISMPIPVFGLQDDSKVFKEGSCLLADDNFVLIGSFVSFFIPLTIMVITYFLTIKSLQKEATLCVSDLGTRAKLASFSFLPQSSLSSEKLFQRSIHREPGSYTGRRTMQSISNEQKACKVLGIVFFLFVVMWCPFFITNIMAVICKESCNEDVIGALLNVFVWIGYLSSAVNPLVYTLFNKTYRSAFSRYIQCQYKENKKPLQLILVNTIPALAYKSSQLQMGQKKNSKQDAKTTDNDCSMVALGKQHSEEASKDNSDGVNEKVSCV

| AC50 [5] | AC50 [10] | AC50 [11] | Structure (SMILES) | AC50 [1] | AC50 [2] | AC50 [3] | AC50 [4] | AC50 [6] | AC50 [7] | AC50 [8] | AC50 [9] |
| --- | --- | --- | --- | --- | --- | --- | --- | --- | --- | --- | --- |
| – | – | – | C[C@]1(COc2ccc(N3CCC(Oc4ccc(OC(F)(F)F)cc4)CC3)cc2)Cn2cc([N+](=O)[O-])nc2O1 | > 30 µM | > 10 µM | > 10 µM | > 10 µM | – | – | – | – |
| > 10 µM | – | – | C[C@]12CC[C@H](O)CC1=CC[C@@H]1[C@@H]2CC[C@]2(C)C(c3cccnc3)=CC[C@@H]12 [ABIRATERONE] | > 30 µM | > 30 µM | > 30 µM | > 30 µM | – | – | – | – |
| – | – | – | CC(=O)OCC[N+](C)(C)C [ACETYLCHOLINE] | > 30 µM | > 10 µM | > 30 µM | > 30 µM | > 30 µM | > 30 µM | > 30 µM | > 30 µM |
| – | – | – | O=C(Nc1nc(-c2cc(Cl)cs2)c(N2CCN(C3CCCCC3)CC2)s1)c1cnc(N2CCC(C(=O)O)CC2)c(Cl)c1 [AVATROMBOPAG] | – | > 10 µM | > 10 µM | > 10 µM | – | – | – | – |
| > 10 µM | – | – | CNCCCC1c2ccccc2C=Cc2ccccc21 [PROTRIPTYLINE] | > 10 µM | > 10 µM | – | > 10 µM | – | – | > 10 µM | – |
| 6.4 µM | 0.51 µM | > 10 µM | OCCN1CCN(CC/C=C2/c3ccccc3Sc3ccc(Cl)cc32)CC1 [ZUCLOPENTHIXOL] | > 10 µM | > 10 µM | 8.4 µM | > 10 µM | – | – | > 10 µM | – |

| Structure (SMILES) | AC50 [5] | AC50 [10] | AC50 [11] | AC50 [1] | AC50 [2] | AC50 [3] | AC50 [4] | AC50 [6] | AC50 [7] | AC50 [8] | AC50 [9] |
| --- | --- | --- | --- | --- | --- | --- | --- | --- | --- | --- | --- |
| NS(=O)(=O)c1cc(C2(O)NC(=O)c3ccccc32)ccc1Cl (configuration not stated) [CHLORTHALIDONE] | > 10 µM | – | – | > 10 µM | > 30 µM | – | – | – | – | > 10 µM | – |
